# Experimental data published in US20230034978A1, “PROCESS FOR MEASURING EFFICACY OF PAIN THERAPY” (priority 2021, published 2023).
# What was measured:
# [1] = tested on: participants with peripheral ongoing neuropathic pain (p-ONP) / peripheral neuropathy; test: Lidocaine patch cross-over trial (Example 2A): pain VAS and DLss C:Aδ ratio; type: in vivo, human; settings: lidocaine patch (5%) or placebo patch, 7 day treatment, p<0.01
# Method: 70 p-ONP participants to with mean pain VAS >40 mm who undergo baseline DLss, and pain measures. Response to VAS was compared to change in C:Aδ ratio following treatment with peripherally active lidocaine patch (5%), or placebo patch using a 7 day treatment cross-over design with 14 day washout between treatment arms.
# • Diode laser for selective stimulation (DLss) testing of C:Aδ ratio. Detection and pain thresholds for fiber-selective laser stimulation was performed with Lass-10M, as previously described (patents U.S. Pat. No. 7,402,167B2 and U.S. Pat. No. 8,029,553B2). The foot dorsum was shaved to limit light absorption and overheating. Skin temperature on the dorsal foot will be monitored and maintained at 32-33° C. using periodic heating pad warming. • Laser detection and pain thresholds (separately for Aδ and C fiber stimulation) were quantified using the “method of levels” on a 6×6 cm stimulus grid drawn on the foot dorsum, shifting location and using a series of ascending stimulations starting from sub-detection intensity, increasing by fixed increments with the highest stimulation determined by participant reporting a painful sensation with intensity between 30 and 40 on the 0-100 VAS. […] Blood perfusion was recorded by Speckle Imaging (PeriCam PSI System, Perimed, Sweden), following DLss stimulus using the C fiber protocol above. […]
# [2] = tested on: CMi fibers (axon flare) in rhesus monkeys; test: DLss induced axon flare before and after intradermal lidocaine injection; type: in vivo; settings: intradermal 2.0% lidocaine injection; four rhesus monkeys; saline subdermal injection as control
# From the text: Lidocaine is a wide spectrum sodium channel blocker that is used clinically as a dermal patch or intradermal injection 97-99 for treatment of peripheral neuropathic pain 3, 99. […] C and Aδ fibers are differentially affected by lidocaine treatment 99-101, and suppression of repetitive CMi activation that mimics spontaneous activity is a potent consequence of lidocaine treatment 100. Flare response in rhesus monkeys, a primate animal model for human neuropathic pain generation and nociceptor dynamics was similar to that observed in healthy subjects (FIG. 2). A total of four monkeys were tested. DLss induced flare was evaluated before and after intradermal 2.0% lidocaine injection and saline subdermal injection was used as a control. […]
# • Diode laser for selective stimulation (DLss) testing of C:Aδ ratio. […] Skin temperature on the dorsal foot will be monitored and maintained at 32-33° C. using periodic heating pad warming. • Laser detection and pain thresholds (separately for Aδ and C fiber stimulation) were quantified using the “method of levels” on a 6×6 cm stimulus grid drawn on the foot dorsum, shifting location and using a series of ascending stimulations starting from sub-detection intensity, increasing by fixed increments with the highest stimulation determined by participant reporting a painful sensation with intensity between 30 and 40 on the 0-100 VAS. […]
# peripheral ONP = settings: lidocaine injection; reference 12; cited from earlier work
compound,measurement,setting,value
CCN(CC)CC(=O)Nc1c(C)cccc1C [lidocaine],"Change in C:Aδ ratio, lidocaine versus placebo treatment groups",[1],distinguish lidocaine from placebo treatment groups
same,axon flare area after injection compared to saline,[2],markedly reduced
same,block of peripheral ONP,peripheral ONP,completely block
